Measurements published in PubChem BioAssay AID330 (DTP/NCI, 2004).
Values joined by “and” are separate entries in the source; they are usually repeats but may differ in a detail not shown here. Equal entries are not always repeated. Toxic doses and inconclusive results are not listed.

System: P388 leukemia ip, CD2F1 mice, survival T/C
Experiment: NCI In Vivo Anticancer Drug Screen. Data for tumor model P388 Leukemia (intraperitoneal) in CD2F1 (CDF1) mice
Conditions: endpoint: median survival time, higher = longer survival
How it was run: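 Mice carrying the transplanted tumor received test compound or vehicle. Survival was recorded in each group, and the value is the treated-group measurement divided by that of the vehicle-treated control group.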

[1] = dose: 12.5 mg/kg/injection, schedule: Q01DX009 (ip), vehicle: saline
[2] = dose: 25.0 mg/kg/injection, schedule: Q01DX009 (ip), vehicle: saline
[3] = dose: 50.0 mg/kg/injection, schedule: Q01DX009 (ip), vehicle: saline
[4] = dose: 50.0 mg/kg/injection, schedule: Q01DX009 (ip), vehicle: Klucel (hydroxypropylcellulose) (HPC)
[5] = dose: 60.0 mg/kg/injection, schedule: Q01DX005 (ip), vehicle: saline with Tween-80
[6] = dose: 120.0 mg/kg/injection, schedule: Q01DX005 (ip), vehicle: saline with Tween-80
[7] = dose: 240.0 mg/kg/injection, schedule: Q01DX005 (ip), vehicle: saline with Tween-80
[8] = dose: 60.0 mg/kg/injection, schedule: Q01DX005 (ip), vehicle: Klucel (hydroxypropylcellulose) (HPC)
[9] = dose: 120.0 mg/kg/injection, schedule: Q01DX005 (ip), vehicle: Klucel (hydroxypropylcellulose) (HPC)
[10] = dose: 240.0 mg/kg/injection, schedule: Q01DX005 (ip), vehicle: Klucel (hydroxypropylcellulose) (HPC)
[11] = dose: 25.0 mg/kg/injection, schedule: Q01DX009 (ip), vehicle: saline with Tween-80
[12] = dose: 50.0 mg/kg/injection, schedule: Q01DX009 (ip), vehicle: saline with Tween-80
[13] = dose: 100.0 mg/kg/injection, schedule: Q01DX009 (ip), vehicle: saline with Tween-80

Structure (SMILES): COc1cccc2c1C(=O)c1c(O)c3c(c(O)c1C2=O)C[C@@](O)(/C(C)=N\NC=O)C[C@@H]3OC1CC(N)C(O)C(C)O1 (some centres undefined)
- T/C (dose: 0.65 mg/kg/injection, schedule: Q01DX009 (ip), vehicle: saline): 150 % of control
- T/C (dose: 1.08 mg/kg/injection, schedule: Q01DX009 (ip), vehicle: saline): 150 % of control
- T/C (dose: 1.8 mg/kg/injection, schedule: Q01DX009 (ip), vehicle: saline): 159 % of control
- T/C (dose: 3.0 mg/kg/injection, schedule: Q01DX009 (ip), vehicle: saline): 163 % of control
- T/C (dose: 3.0 mg/kg/injection, schedule: Q04DX003 (ip), vehicle: saline): 150 % of control
- T/C (dose: 5.0 mg/kg/injection, schedule: Q01DX009 (ip), vehicle: saline): 163 % of control
- T/C (dose: 5.0 mg/kg/injection, schedule: Q04DX003 (ip), vehicle: saline): 154 % of control
- T/C (dose: 8.0 mg/kg/injection, schedule: Q01DX001 (ip), vehicle: saline): 154 % of control
- T/C (dose: 8.0 mg/kg/injection, schedule: Q01DX009 (ip), vehicle: saline): 177 % of control
- T/C (dose: 8.0 mg/kg/injection, schedule: Q04DX003 (ip), vehicle: saline): 172 % of control
- T/C (dose: 13.3 mg/kg/injection, schedule: Q01DX001 (ip), vehicle: saline): 154 % of control
- T/C (dose: 22.2 mg/kg/injection, schedule: Q01DX001 (ip), vehicle: saline): 172 % of control
- T/C (dose: 22.2 mg/kg/injection, schedule: Q04DX003 (ip), vehicle: saline): 190 % of control
- T/C (dose: 37.0 mg/kg/injection, schedule: Q01DX001 (ip), vehicle: saline): 181 % of control

Structure (SMILES): CCCCCCCCCCC[N+]1([O-])CCOCC1
- T/C [1]: 101 % of control
- T/C [2]: 99 % of control
- T/C [3]: 99 % of control and 89 % of control

Structure (SMILES): O=c1c2ccccc2n2nc3ccccc3c2n1-c1ccccc1
- T/C (dose: 93.25 mg/kg/injection, schedule: Q04DX002 (ip), vehicle: Klucel (hydroxypropylcellulose) (HPC)): 104 % of control
- T/C (dose: 186.5 mg/kg/injection, schedule: Q04DX002 (ip), vehicle: Klucel (hydroxypropylcellulose) (HPC)): 98 % of control
- T/C (dose: 373.0 mg/kg/injection, schedule: Q04DX002 (ip), vehicle: Klucel (hydroxypropylcellulose) (HPC)): 95 % of control

Structure (SMILES): COc1cc(/C=N/NP(=S)(Oc2ccc(C(C)(C)C)cc2)Oc2ccc(C(C)(C)C)cc2)cc(OC)c1O
- T/C [4]: 99 % of control
- T/C (dose: 100.0 mg/kg/injection, schedule: Q01DX009 (ip), vehicle: Klucel (hydroxypropylcellulose) (HPC)): 99 % of control

Structure (SMILES): C[CH2][Sn]([c]1ccccc1)[c]1ccccc1
- T/C [1]: 109 % of control
- T/C [2]: 114 % of control
- T/C (dose: 25.0 mg/kg/injection, schedule: Q04DX003 (ip), vehicle: saline): 108 % of control
- T/C [3]: 114 % of control and 116 % of control
- T/C (dose: 50.0 mg/kg/injection, schedule: Q04DX003 (ip), vehicle: saline): 115 % of control
- T/C (dose: 100.0 mg/kg/injection, schedule: Q04DX003 (ip), vehicle: saline): 109 % of control

Structure (SMILES): CC(C)(C)c1cccc(C2(C)C(=O)c3ccccc3C2=O)c1
- T/C (dose: 100.0 mg/kg/injection, schedule: Q04DX002 (ip), vehicle: saline): 102 % of control
- T/C (dose: 200.0 mg/kg/injection, schedule: Q04DX002 (ip), vehicle: saline): 101 % of control
- T/C (dose: 400.0 mg/kg/injection, schedule: Q04DX002 (ip), vehicle: saline): 100 % of control

Structure (SMILES): CCCCCCCCCCCCSC(SCCCCCCCCCCCC)c1ccc(OCC(=O)O)cc1
- T/C (dose: 25.0 mg/kg/injection, schedule: Q04DX003 (ip), vehicle: DMSO): 96 % of control
- T/C (dose: 50.0 mg/kg/injection, schedule: Q04DX003 (ip), vehicle: DMSO): 91 % of control
- T/C (dose: 100.0 mg/kg/injection, schedule: Q04DX003 (ip), vehicle: DMSO): 94 % of control
- T/C (dose: 200.0 mg/kg/injection, schedule: Q04DX003 (ip), vehicle: DMSO): 91 % of control

Structure (SMILES): CC(C)(C)N1COC2CCCC21 (centres undefined)
- T/C (dose: 12.5 mg/kg/injection, schedule: Q01DX005 (ip), vehicle: saline): 108 % of control
- T/C (dose: 25.0 mg/kg/injection, schedule: Q01DX005 (ip), vehicle: saline): 100 % of control

Structure (SMILES): S=c1nc[nH]c2nc(-c3ccccc3)[nH]c12
- T/C (dose: 12.5 mg/kg/injection, schedule: Q01DX005 (ip), vehicle: other): 101 % of control
- T/C (dose: 25.0 mg/kg/injection, schedule: Q01DX005 (ip), vehicle: other): 100 % of control
- T/C (dose: 50.0 mg/kg/injection, schedule: Q01DX005 (ip), vehicle: other): 101 % of control
- T/C (dose: 100.0 mg/kg/injection, schedule: Q01DX005 (ip), vehicle: other): 92 % of control
- T/C (dose: 200.0 mg/kg/injection, schedule: Q01DX005 (ip), vehicle: other): 92 % of control

Structure (SMILES): Cc1ccc(C)c(NC(=O)CCC(=O)C(C)C(=O)c2ccccc2)c1 (centres undefined)
- T/C [5]: 111 % of control
- T/C [6]: 102 % of control
- T/C [7]: 108 % of control

Structure (SMILES): c1ccc(OCCNCCOc2ccccc2)cc1
- T/C [8]: 104 % of control
- T/C [9]: 98 % of control
- T/C [10]: 103 % of control

Structure (SMILES): CCOC(=O)NC(C)(C)CN(C(=O)OCC)C(C)C
- T/C (dose: 100.0 mg/kg/injection, schedule: Q04DX003 (ip), vehicle: other): 95 % of control
- T/C (dose: 200.0 mg/kg/injection, schedule: Q04DX003 (ip), vehicle: other): 100 % of control
- T/C (dose: 400.0 mg/kg/injection, schedule: Q04DX003 (ip), vehicle: other): 95 % of control

Structure (SMILES): [O-][n+]1cnn2ccccc21
- T/C [5]: 100 % of control
- T/C [6]: 106 % of control
- T/C [7]: 102 % of control

Structure (SMILES): O=C1C2=C(OCO2)C(=O)C2=C1OCO2
- T/C (dose: 15.0 mg/kg/injection, schedule: Q01DX005 (ip), vehicle: saline with Tween-80): 104 % of control
- T/C (dose: 30.0 mg/kg/injection, schedule: Q01DX005 (ip), vehicle: saline with Tween-80): 101 % of control
- T/C [5]: 106 % of control

Structure (SMILES): Cc1cccc(Cl)c1NC(=O)Nc1cccc(C#N)c1
- T/C [5]: 93 % of control
- T/C [6]: 89 % of control
- T/C [7]: 98 % of control

Structure (SMILES): O=S(=O)(Cl)C(F)(F)C(F)(F)C(F)(F)C(F)(F)C(F)(F)C(F)(F)F
- T/C (dose: 12.5 mg/kg/injection, schedule: Q01DX009 (ip), vehicle: saline with Tween-80): 100 % of control
- T/C [11]: 104 % of control
- T/C [12]: 100 % of control and 93 % of control
- T/C [13]: 112 % of control

Structure (SMILES): COC1=CC(=O)C(OC)=C(OC)C1=O
- T/C (dose: 22.0 mg/kg/injection, schedule: Q01DX009 (ip), vehicle: saline with Tween-80): 112 % of control
- T/C (dose: 33.0 mg/kg/injection, schedule: Q01DX009 (ip), vehicle: saline with Tween-80): 123 % of control
- T/C (dose: 75.0 mg/kg/injection, schedule: Q01DX009 (ip), vehicle: saline with Tween-80): 104 % of control

Structure (SMILES): S=C1N=C2c3ccccc3C2C(=S)S1 (centres undefined)
- T/C [11]: 93 % of control
- T/C [12]: 101 % of control and 105 % of control
- T/C [13]: 102 % of control and 120 % of control and 91 % of control
- T/C (dose: 200.0 mg/kg/injection, schedule: Q01DX009 (ip), vehicle: saline with Tween-80): 100 % of control and 104 % of control and 87 % of control

Structure (SMILES): COc1cc(/C=C2\SC(=S)N(CCCN3CCOCC3)C2=O)ccc1O
- T/C [12]: 91 % of control

Structure (SMILES): CCCCCCCCCCCN(CCCCCCCCCCC)CC(O)c1cc2c(c3ccccc13)CCCC2 (centres undefined)
- T/C (dose: 50.0 mg/kg/injection, schedule: Q01DX005 (ip), vehicle: Klucel (hydroxypropylcellulose) (HPC)): 98 % of control
- T/C (dose: 100.0 mg/kg/injection, schedule: Q01DX005 (ip), vehicle: Klucel (hydroxypropylcellulose) (HPC)): 100 % of control
- T/C (dose: 200.0 mg/kg/injection, schedule: Q01DX005 (ip), vehicle: Klucel (hydroxypropylcellulose) (HPC)): 96 % of control

Structure (SMILES): COc1cc2c(cc1OC)C1CC(=O)C(CC(C)C)CN1CC2 (centres undefined)
- T/C (dose: 12.5 mg/kg/injection, schedule: Q01DX009 (ip), vehicle: Klucel (hydroxypropylcellulose) (HPC)): 100 % of control
- T/C (dose: 25.0 mg/kg/injection, schedule: Q01DX009 (ip), vehicle: Klucel (hydroxypropylcellulose) (HPC)): 100 % of control
- T/C [4]: 103 % of control

Structure (SMILES): CC(=S)N(c1ccccc1)c1ccccc1
- T/C [8]: 101 % of control
- T/C [9]: 96 % of control
- T/C [10]: 93 % of control

Structure (SMILES): CCN(CC)Cc1cc(Nc2nc(/C=C/c3ccccc3)nc3ccccc23)ccc1O
- T/C (dose: 50.0 mg/kg/injection, schedule: Q01DX009 (ip), vehicle: distilled water + alcohol): 97 % of control
- T/C (dose: 100.0 mg/kg/injection, schedule: Q01DX009 (ip), vehicle: distilled water + alcohol): 100 % of control
- T/C (dose: 200.0 mg/kg/injection, schedule: Q01DX009 (ip), vehicle: distilled water + alcohol): 98 % of control
